# Experimental data reported in ChEMBL document CHEMBL5321281, “Synthesis and Biological Evaluation of Heterocyclic Ring-Fused 20(S)-Protopanaxadiol Derivatives as Potent Antiosteoporosis Agents” (J Med Chem, 2023).
# Activity calls are given as the source filed them. The rule behind the calls is not given here.
# How the values were obtained:
# BMMC [1] = test: Anti-osteoclastogenic activity in C57/BL6 mouse BMMC cells assessed as inhibition of RANKL-induced osteoclast differentiation incubated for 5 to 7 days in presence of M-CSF by TRAP staining based microscopic analysis relative to control; format: functional, cell-based
# BMMC [2] = test: Anti-osteoclastogenic activity in C57/BL6 mouse BMMC cells assessed as inhibition of RANKL-induced osteoclast differentiation at 0.1 uM incubated for 5 to 7 days in presence of M-CSF by TRAP staining based microscopic analysis relative to control; format: functional; conditions: time 5-7 day
# Mus musculus [3] = test: Protective effect in ovariectomy induced osteoporosis C57BL/6 mouse model assessed as inhibition of OVX-induced osteoblast activity by analysing osteoblast number in proximal femur at 3 mg/kg, ip and measured after 6 weeks by TRAP staining based microscopic analysis; format: functional, organism-based
# [4] = AUCt in ICR mouse at 1 mg/kg, iv and measured upto 24 hrs by LC-MS/MS analysis; format: ADME, organism-based; parameters: dose 1 mg/kg, time < 24 hrs, route iv; conditions: in vivo
# Mus musculus [5] = test: Protective effect in ovariectomy induced osteoporosis C57BL/6 mouse model assessed as increase in bone volume/tissue volume (BV/TV) in RIO of femur at 1 mg/kg, ip and measured after 6 weeks by micro-CT analysis; format: functional
# [6] = Half life in ICR mouse at 1 mg/kg, iv and measured upto 24 hrs by LC-MS/MS analysis; format: ADME, organism-based; conditions: in vivo
# BMMC [7] = test: Anti-osteoclastogenic activity in C57/BL6 mouse BMMC cells assessed as reduction in RANKL-induced TRAP protein expression level at 0.1 uM incubated for 1 to 3 days in presence of M-CSF by Western blot anlaysis; format: functional, cell-based; conditions: time 1-3 day
# [8] = Clearance in ICR mouse at 1 mg/kg, iv and measured upto 24 hrs by LC-MS/MS analysis; format: ADME, organism-based; conditions: in vivo
# BMMC [9] = test: Anti-osteoclastogenic activity in C57/BL6 mouse BMMC cells assessed as inhibition of RANKL-stimulated osteoclastogenesis at 1 uM and compound added at day 1 to 3 (early stage) and measured after 7 days in presence of M-CSF by TRAP staining based microscopic analysis relative to control; format: functional; conditions: 168 h, time 7 day
# [10] = Microsomal stability in mouse liver microsomes assessed as intrinsic clearance at 1 uM and measured upto 60 mins by LC-MS/ MS analysis; format: ADME, Microsome; conditions: read-out: CLH
compound,measurement,setting,value
C=C(CCC=C(C)C)[C@H]1CC[C@]2(C)[C@@H]1[C@H](O)C[C@@H]1[C@@]3(C)Cc4cnc(C)nc4C(C)(C)[C@@H]3CC[C@]12C,IC50,BMMC [1],10.3 nM
same,inhibition at 0.1 µM,BMMC [2],100%
same,inhibition,Mus musculus [3],inactive
same,AUC(0-t) at 24 h,[4],1170 ng·h/mL
same,Activity,Mus musculus [5],5.6%
same,half-life,[6],20.2 min
same,Activity,BMMC [7],Active
same,clearance,[8],14.2 mL/min/kg
same,inhibition at 1 µM,BMMC [9],98.8%
same,microsomal CLint at 1 µM,[10],37.4 µL/min/mg
